Data set [1] is described as follows: Water solubility (excess compound suspended in distilled water, supernatant measured by HPLC). It counts as physicochemical. How it is done: The water solubility of ivacaftor and ivacaftor-17-O-D-glucoside was investigated by suspending excess amounts of the two compounds in 200 μl of distilled water in a microcentrifuge tube at 25° C. for 12 h. Afterwards, each sample was centrifuged at 12,000×g for 20 min. The supernatant of each sample was then filtered through a 0.45-μm membrane filter and the concentration of the compound in the supernatant, which is defined as the water-soluble component, was measured by its absorbance at 300 nm using HPLC, and its absolute solubility was calculated in reference to the concentration-absorbance standard curve.

The conditions of data set [2]: background statement, no method given; cited from earlier work.

Each structure is given as a SMILES string. ≈ marks a conversion by molar mass, not a printed value. Bounds are passed on as bounds.

The compound `CC(C)(C)c1cc(C(C)(C)C)c(NC(=O)c2c[nH]c3ccccc3c2=O)cc1O` [ivacaftor, Ivacaftor] returned a solubility at 12 h in data set [1] (25 °C, water, thermodynamic from solid) of 0.1 µg/mL (≈ 0.255 µM). Moreover, the solubility in water in data set [2] is below 1 µg/mL.
Turning to `CC(C)(C)c1cc(C(C)(C)C)c(OC2O[C@H](CO)[C@@H](O)[C@H](O)[C@H]2O)cc1NC(=O)c1c[nH]c2ccccc2c1=O` (stereo partly drawn) [ivacaftor-17-O-D-glucoside], the “water solubility, times higher than ivacaftor” value in data set [1] (distilled water, 25° C., 12 h, relative to ivacaftor) is on record as 14,550 times. Also, in data set [1] (distilled water, 25° C., 12 h, supernatant filtered 0.45-μm, absorbance at 300 nm by HPLC), the water solubility was 1,455 mg/L.

Usually solubility stands for the dissolved amount per volume that the medium holds. A lower solubility goes with a poorly soluble substance.

(Values after US20230124589A1, “Ivacaftor Glycosides, Methods Of Making, And Uses Thereof In Treating Cystic Fibrosis” (DoubleRainbow Biosciences Inc., priority 2020, published 2023).)
